In PubChem BioAssay AID328 (DTP/NCI, 2004) one finds T/C data, which are given here for 20 molecules.

The structures appear in SMILES notation. Several values for one entry are separate records, joined by “and”; a condition that tells them apart may be missing. Identical values can stand only once. Toxic doses and inconclusive results are not listed.

The test system of this assay is BDF1 mice, P388 leukemia ip, median survival T/C. The assay can be described thus: NCI In Vivo Anticancer Drug Screen. Data for tumor model P388 Leukemia (intraperitoneal) in B6D2F1 (BDF1) mice. The note with it: endpoint: median survival time, higher = longer survival. The gist of the method:
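Compound-treated tumour-bearing mice were compared with vehicle-treated controls. Survival was recorded, and the value is the treated-group measurement divided by the control-group measurement (T/C).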

Setting [1] is: dose: 200.0 mg/kg/injection, schedule: Q01DX009 (ip), vehicle: Klucel (hydroxypropylcellulose) (HPC).
[2] abbreviates: dose: 50.0 mg/kg/injection, schedule: Q04DX003 (ip), vehicle: Klucel (hydroxypropylcellulose) (HPC).
Where [3] appears, read: dose: 100.0 mg/kg/injection, schedule: Q04DX003 (ip), vehicle: Klucel (hydroxypropylcellulose) (HPC).
The mark [4] stands for this setting: dose: 100.0 mg/kg/injection, schedule: Q01DX001 (ip), vehicle: Klucel (hydroxypropylcellulose) (HPC).
[5] abbreviates: dose: 200.0 mg/kg/injection, schedule: Q01DX001 (ip), vehicle: Klucel (hydroxypropylcellulose) (HPC).
Setting [6] is: dose: 400.0 mg/kg/injection, schedule: Q01DX001 (ip), vehicle: Klucel (hydroxypropylcellulose) (HPC).
Setting [7] is: dose: 100.0 mg/kg/injection, schedule: Q01DX009 (ip), vehicle: Klucel (hydroxypropylcellulose) (HPC).

On to `Nc1cc(Cl)ncn1`, for which the T/C was 100 % of control (dose: 60.0 mg/kg/injection, schedule: Q01DX009 (ip), vehicle: saline); 97 % of control (dose: 90.0 mg/kg/injection, schedule: Q01DX009 (ip), vehicle: saline); 97 % of control (dose: 175.0 mg/kg/injection, schedule: Q01DX009 (ip), vehicle: saline); 95 % of control under setting [1].
Turning to `O=c1c(N=Nc2ccccc2)c(O)n(-c2ccccc2)c(=S)n1-c1ccccc1`, the T/C was 100 % of control (dose: 25.0 mg/kg/injection, schedule: Q01DX001 (ip), vehicle: saline with Tween-80); 90 % of control (dose: 50.0 mg/kg/injection, schedule: Q01DX001 (ip), vehicle: saline with Tween-80); 95 % of control (dose: 100.0 mg/kg/injection, schedule: Q01DX001 (ip), vehicle: saline with Tween-80).
In the case of `O=CC1CO1` (stereo unspecified), the T/C (dose: 33.0 mg/kg/injection, schedule: Q01DX009 (ip), vehicle: saline sonified) is 150 % of control and the T/C (dose: 33.0 mg/kg/injection, schedule: Q01DX009 (ip), vehicle: saline) is 116 % of control.
Regarding `O=C(/C=C/c1cccc(Br)c1)NCC(O)CO` (stereo unspecified), the T/C is 95 % of control (dose: 200.0 mg/kg/injection, schedule: Q01DX009 (ip), vehicle: saline with Tween-80) and 87 % of control (dose: 400.0 mg/kg/injection, schedule: Q01DX009 (ip), vehicle: saline with Tween-80).
Turning to `O=C(O)c1cc2ccccc2c2cc(Br)ccc12`, the T/C reads like this: (dose: 100.0 mg/kg/injection, schedule: Q04DX003 (ip), vehicle: saline with Tween-80) 100 % of control; (dose: 200.0 mg/kg/injection, schedule: Q04DX003 (ip), vehicle: saline with Tween-80) 104 % of control.
Consider `CN(/N=C/C(O)C(O)C(O)CO)c1ccccc1` (stereo unspecified), for which the T/C runs as follows: under setting [2], 105 % of control; under setting [3], 105 % of control; (dose: 200.0 mg/kg/injection, schedule: Q04DX003 (ip), vehicle: Klucel (hydroxypropylcellulose) (HPC)) 100 % of control.
`COc1cccc2c1C(=O)c1c(O)c3c(c(O)c1C2=O)C[C@@](O)(C(C)=O)C[C@@H]3OC1CC(N(Cc2ccccc2)Cc2ccccc2)C(O)C(C)O1` (stereo partly specified): the T/C reads like this: (dose: 37.5 mg/kg/injection, schedule: Q04DX003 (ip), vehicle: water) 227 % of control; (dose: 150.0 mg/kg/injection, schedule: Q04DX003 (ip), vehicle: water) 100 % of control; (dose: 300.0 mg/kg/injection, schedule: Q04DX003 (ip), vehicle: water) 102 % of control.
With `COc1ccc(Cl)cc1NC(=O)Nc1c(C)n(C)n(-c2ccccc2)c1=O`, the T/C reads like this: under setting [4], 100 % of control; under setting [5], 100 % of control; under setting [6], 95 % of control.
As to `O=C(O)/C=C\C(=O)Nc1ccccc1NC(=O)/C=C/C(=O)O`, the T/C is 104 % of control (dose: 100.0 mg/kg/injection, schedule: Q01DX009 (ip), vehicle: saline); 113 % of control (dose: 200.0 mg/kg/injection, schedule: Q01DX009 (ip), vehicle: saline); 109 % of control (dose: 400.0 mg/kg/injection, schedule: Q01DX009 (ip), vehicle: saline).
On to `Cc1ccc(N2C=Nc3ccc(C)cc3C2)cc1`, for which the T/C by setting is: (dose: 10.0 mg/kg/injection, schedule: Q01DX009 (ip), vehicle: Klucel (hydroxypropylcellulose) (HPC)) 100 % of control; (dose: 15.0 mg/kg/injection, schedule: Q01DX009 (ip), vehicle: Klucel (hydroxypropylcellulose) (HPC)) 100 % of control; (dose: 25.0 mg/kg/injection, schedule: Q01DX009 (ip), vehicle: Klucel (hydroxypropylcellulose) (HPC)) 90 % of control; (dose: 40.0 mg/kg/injection, schedule: Q01DX009 (ip), vehicle: Klucel (hydroxypropylcellulose) (HPC)) 100 % of control; (dose: 50.0 mg/kg/injection, schedule: Q01DX009 (ip), vehicle: Klucel (hydroxypropylcellulose) (HPC)) 118 % of control; under setting [7], 109 % of control. Also, the T/C is 109 % of control (dose: 100.0 mg/kg/injection, schedule: Q04DX003 (ip), vehicle: other); 90 % of control under setting [1]; 104 % of control (dose: 200.0 mg/kg/injection, schedule: Q04DX003 (ip), vehicle: other).
Take `CC(C)CCCc1c[nH]c(=O)[nH]c1=O`: the T/C is, setting by setting: under setting [4], 90 % of control; under setting [7], 86 % of control; under setting [5], 90 % of control; under setting [1], 86 % of control; under setting [6], 90 % of control; (dose: 400.0 mg/kg/injection, schedule: Q01DX009 (ip), vehicle: Klucel (hydroxypropylcellulose) (HPC)) 91 % of control.
As for `CCOC(=O)C(C)NC(=O)C(C)NC(=O)OCc1ccccc1` (stereo unspecified), the T/C is, setting by setting: (dose: 100.0 mg/kg/injection, schedule: Q01DX009 (ip), vehicle: gum acacia) 120 % of control; (dose: 100.0 mg/kg/injection, schedule: Q04DX003 (ip), vehicle: gum acacia) 95 % of control; (dose: 200.0 mg/kg/injection, schedule: Q01DX009 (ip), vehicle: gum acacia) 100 % of control; (dose: 200.0 mg/kg/injection, schedule: Q04DX003 (ip), vehicle: gum acacia) 112 % of control; (dose: 400.0 mg/kg/injection, schedule: Q01DX009 (ip), vehicle: gum acacia) 95 % of control; (dose: 400.0 mg/kg/injection, schedule: Q04DX003 (ip), vehicle: gum acacia) 87 % of control.
With `Cc1c2ccccc2cc2cccc[n+]12`, the T/C is, setting by setting: (dose: 0.63 mg/kg/injection, schedule: Q01DX010 (ip), vehicle: saline) 100 % of control; (dose: 1.25 mg/kg/injection, schedule: Q01DX010 (ip), vehicle: saline) 100 % of control; (dose: 2.5 mg/kg/injection, schedule: Q01DX010 (ip), vehicle: saline) 105 % of control and 120 % of control; (dose: 10.0 mg/kg/injection, schedule: Q01DX010 (ip), vehicle: saline) 150 % of control; (dose: 40.0 mg/kg/injection, schedule: Q04DX003 (ip), vehicle: saline) 150 % of control; (dose: 80.0 mg/kg/injection, schedule: Q04DX003 (ip), vehicle: saline) 100 % of control.
In the case of `CCN(CC)CCCNc1cccc2c(C)cc(OC)nc12`, the T/C runs as follows: (dose: 50.0 mg/kg/injection, schedule: Q01DX009 (ip), vehicle: saline with Tween-80) 97 % of control; (dose: 100.0 mg/kg/injection, schedule: Q01DX009 (ip), vehicle: saline with Tween-80) 114 % of control.
On to `CCCCCCCCCCCC[N+]1(CCCCCCCCCCCC)CCCC(C)C1` (stereo unspecified), for which the T/C (dose: 0.37 mg/kg/injection, schedule: Q01DX009 (ip), vehicle: Klucel (hydroxypropylcellulose) (HPC)) is 108 % of control.
Regarding `CNCC(=O)NC(CO)C(=O)NC1C(C(N)=O)OC(n2ccc(N)nc2=O)C(O)C1O` (stereo unspecified), the T/C (dose: 0.75 mg/kg/injection, schedule: Q04DX003 (ip), vehicle: saline) was 103 % of control; the T/C (dose: 1.5 mg/kg/injection, schedule: Q04DX003 (ip), vehicle: saline) was 112 % of control; the T/C (dose: 3.0 mg/kg/injection, schedule: Q04DX003 (ip), vehicle: saline) was 102 % of control.
For `OCCN1CCNC1=S`, the T/C (dose: 100.0 mg/kg/injection, schedule: Q04DX003 (ip), vehicle: saline) was 95 % of control; the T/C (dose: 200.0 mg/kg/injection, schedule: Q04DX003 (ip), vehicle: saline) is 91 % of control; the T/C (dose: 400.0 mg/kg/injection, schedule: Q04DX003 (ip), vehicle: saline) was 91 % of control.
On to `Cc1ccn(/C(N)=N/C(=S)Nc2ccccc2)n1`, for which the T/C by setting is: (dose: 37.5 mg/kg/injection, schedule: Q01DX009 (ip), vehicle: saline with Tween-80) 108 % of control; (dose: 75.0 mg/kg/injection, schedule: Q01DX009 (ip), vehicle: saline with Tween-80) 90 % of control; (dose: 150.0 mg/kg/injection, schedule: Q01DX009 (ip), vehicle: saline with Tween-80) 114 % of control.
On to `Cc1cccc2cc3c(ccc4ccccc43)c[n+]12`, for which the T/C is 109 % of control (dose: 1.0 mg/kg/injection, schedule: Q01DX009 (ip), vehicle: Klucel (hydroxypropylcellulose) (HPC)); 100 % of control (dose: 2.0 mg/kg/injection, schedule: Q01DX009 (ip), vehicle: Klucel (hydroxypropylcellulose) (HPC)); 100 % of control (dose: 4.0 mg/kg/injection, schedule: Q01DX009 (ip), vehicle: Klucel (hydroxypropylcellulose) (HPC)); 113 % of control (dose: 8.0 mg/kg/injection, schedule: Q01DX009 (ip), vehicle: Klucel (hydroxypropylcellulose) (HPC)).
Consider `Cc1ccc(C)c(CN(C)C)c1O`, for which the T/C runs as follows: (dose: 25.0 mg/kg/injection, schedule: Q04DX003 (ip), vehicle: Klucel (hydroxypropylcellulose) (HPC)) 118 % of control; under setting [2], 100 % of control; under setting [3], 100 % of control.
